How the values were obtained:
Assay type in all cases: physicochemical
[1] = Example 1: stability of bilberry extract anthocyanosides, 4 hours at 37° C., pH 7.0, with/without DHLA or GSH (HPLC); details: for % left, GSH (4 hours) / Peak Area, GSH (4 hours): 20 mg reduced L-glutathione; for % left, GSH (4 hours) / Peak Area, GSH (4 hours) / % left, DHLA (4 hours) / Peak Area, DHLA (4 hours) / % left, Blank (4 hours) / Peak Area, Blank (4 hours): pH 7.0, 37° C.; for % left, DHLA (4 hours) / Peak Area, DHLA (4 hours): 30 mg dihydrolipoic acid; for Peak Area, Fresh (0 hours): bilberry extract 60 mg/100 ml sodium phosphate buffer pH 7.0, fresh sample; for % left, Blank (4 hours) / Peak Area, Blank (4 hours): unprotected
Method: (0.048 mmol anthocyanosides expressed as cyanidin-3-O-glucoside) were added to a 100 ml flask and filled to volume with sodium phosphate buffer (5% [w/w], pH=7.0), and stirred until dissolution was complete. A 1 ml sample was taken immediately and acidified with formic acid to pH=1.0 and analyzed by HPLC for the content of anthocyanosides (Fresh Sample). The remaining solution was kept for 4 hours at 37° C. (water bath) with stirring. Thereafter another sample (Blank sample), representing unprotected degradation, was taken and acidified.
(0.048 mmol expressed as cyanidin-3-O-glucoside) were then added and the flask was filled to volume with sodium phosphate buffer (5% [w/w], pH=7.0) and kept for 4 hours at 37° C. (water bath) with stirring.
Quantitation: External standardization based on linear regression analysis. The response factors of all anthocyanosides separated is quantitified against cyanidin-3-O-glucoside.
Test solutions from incubation experiments (with/without cells and with/without stabilizing agents) were used for analysis after stabilization of anthocyanosides with formic acid. Samples were cleared by filtration prior to injection on to HPLC-system.

[2] = Example 3: stability of black currant extract anthocyanosides, 4 hours at 37° C., pH 7.0, with/without DHLA, GSH or L-cysteine (HPLC); details: for Peak Area, Fresh solution: black currant extract 60 mg/100 ml buffer pH 7.0, fresh sample; for % left, DHLA 20 mg / % left, GSH 20 mg / % left, L-cysteine 20 mg / Peak Area, DHLA 20 mg / Peak Area, GSH 20 mg / Peak Area, L-cysteine 20 mg / % left, Blank / Peak Area, Blank: pH 7.0, 37° C., 4 hours; for % left, Blank / Peak Area, Blank: unprotected
Method: (§1) Sample a) 60 mg black currant extract [35% anthocyanosides] (0.037 mmol anthocyanosides expressed as cyanidin-3-O-rutinoside) were added to a 100 ml flask and filled to volume with sodium phosphate buffer (5% [w/w], pH=7.0) and stirred until dissolution was complete. A 1 ml sample was taken immediately, acidified with formic acid to pH=1.0 and analyzed by HPLC for the content of anthocyanosides (Fresh Sample). The remaining solution was kept for 4 hours at 37° C. (water bath) with stirring. Thereafter samples (Blank sample), representing unprotected degradation, were taken and acidified.
(§2) Sample b) 20 mg reduced L-glutathione (0.065 mmol) were added to a 100 ml flask with 60 ml sodium phosphate buffer (5% [w/w], pH=7.0) and stirred until dissolution was complete. 60 mg black currant extract [35% anthocyanosides] (0.037 mmol anthocyanosides expressed as cyanidin-3-O-rutinoside) were then added and the flask was filled to volume with sodium phosphate buffer (5% [w/w], pH=7.0) and kept for 4 hours at 37° C. (water bath) with stirring.
as §2, with “Sample c)” for “Sample b)”, “mg dihydrolipoic acid (0.096” for “mg reduced L-glutathione (0.065”, “was completed.” for “was complete.”, “were” for “were then”, “added to” for “added and”, “the flask,” for “the flask was”
as §2, with “Sample d)” for “Sample b)”, “mg L-cysteine acid (0.165” for “mg reduced L-glutathione (0.065”, “were” for “were then”, “added to” for “added and”, “the flask,” for “the flask was”
After 4 hours samples were taken, acidified immediately with formic acid to pH=1.0 and analyzed by HPLC for the content of anthocyanosides. Degradation is expressed as decrease in peak area of individual peaks (calculated as % left after 4 hours).
(§3) Samples were prepared as outlined below in HPLC Analytical Method. Test stability samples were immediately acidified (to block degradation) and injected undiluted following the detailed description provided below.
HPLC Analytical Method (Materials, Instruments and Methods): […]

[3] = Example 5: degradation over time of black currant anthocyanosides at 37° C., pH 7.0, with/without GSH (HPLC); details: pH 7.0, 37° C.; for %-residual anthocyanosides (% left): 4 hours
Method: as §1, with “flask,” for “flask and”, “anthocyanosides.” for “anthocyanosides (Fresh Sample).”, “kept” for “kept for 4 hours”, “stirring and 1 ml” for “stirring. Thereafter”, “Samples),” for “sample),”, “every 15 minutes. The samples were analyzed for selected anthocyanosides by HPLC.” for “and acidified.”
as §2, with “added,” for “then added and”, “for” for “for 4 hours”, “stirring. Every 15 minutes 1 ml samples were taken and analyzed for selected anthocyanosides by HPLC.” for “stirring.”
as §3

[4] = Example 9: stability of bilberry extract anthocyanosides, 4 hours at 37° C., pH 7.0, with/without L-cysteine; details: for Peak Area, Fresh solution: bilberry extract 60 mg in buffer pH 7.0, fresh sample; for % left, L-cysteine 20 mg / Peak Area, L-cysteine 20 mg / % left, Blank / Peak Area, Blank: pH 7.0, 37° C., 4 hours; for % left, Blank / Peak Area, Blank: unprotected
Method: Sample a) 60 mg bilberry extract [37% anthocyanosides] (0.048 mmol anthocyanosides expressed as cyanidin-3-O-glucoside) were added to a 100 ml flask with 60 ml sodium phosphate buffer (5% [w/w], pH=7.0), and stirred until dissolution was complete. A 1 ml sample was taken immediately and acidified with formic acid to pH=1.0 and analyzed by HPLC for the content of anthocyanosides (Fresh Sample). The remaining solution was kept for 4 hours at 37° C. (water bath) with stirring. Thereafter another sample (Blank sample), representing unprotected degradation, was taken and acidified.
Sample b) 20 mg L-cysteine […] were added to a 100 ml flask with 60 ml sodium phosphate buffer (5% [w/w], pH=7.0) and stirred until dissolution was complete. 60 mg bilberry extract [37% anthocyanosides] (0.048 mmol expressed as cyanidin-3-O-glucoside) were then added to the flask and stir to fully dissolve, then kept for 4 hours at 37° C. (water bath) with stirring.
After 4 hours, samples were taken and acidified immediately with formic acid to pH=1.0 and analyzed by HPLC for the content of anthocyanosides. Degradation is expressed as decrease in peak area of individual peaks (calculated as % left after 4 hours).
Samples were prepared as outlined above in the HPLC Analytical Method. Test stability samples were immediately acidified (to block degradation) and injected undiluted following the detailed description provided below.

[5] = GSH protected sample (20 mg), 0:00 h
[6] = GSH protected sample (20 mg), 0:15 h
[7] = GSH protected sample (20 mg), 0:45 h
[8] = GSH protected sample (20 mg), 1:00 h
[9] = GSH protected sample (20 mg), 1:15 h
[10] = GSH protected sample (20 mg), 1:45 h
[11] = GSH protected sample (20 mg), 2:00 h
[12] = GSH protected sample (20 mg), 2:15 h
[13] = GSH protected sample (20 mg), 2:45 h
[14] = GSH protected sample (20 mg), 3:00 h
[15] = GSH protected sample (20 mg), 3:15 h
[16] = GSH protected sample (20 mg), 3:45 h
[17] = GSH protected sample (20 mg), 4:00 h
[18] = GSH protected sample (20 mg), 4:15 h

SMILES: OC[C@H]1O[C@@H](Oc2cc3c(O)cc(O)cc3[o+]c2-c2ccc(O)c(O)c2)[C@H](O)[C@@H](O)[C@@H]1O [Cn-3O-Glc, Cyanidin 3-o-glucoside]
- % left, GSH (4 hours) [1]: 80.7%
- Peak Area, GSH (4 hours) [1]: 797.5
- % left, DHLA (4 hours) [1]: 67.9%
- Peak Area, DHLA (4 hours) [1]: 671.1
- Peak Area, Fresh (0 hours) [1]: 987.9
- % left, Blank (4 hours) [1]: 41.5%
- Peak Area, Blank (4 hours) [1]: 410.3
- Peak Area, Fresh solution [2]: 491.1
- % left, DHLA 20 mg [2]: 51.7%
- % left, GSH 20 mg [2]: 64.3%
- % left, L-cysteine 20 mg [2]: 38.0%
- Peak Area, DHLA 20 mg [2]: 254.1
- Peak Area, GSH 20 mg [2]: 315.7
- Peak Area, L-cysteine 20 mg [2]: 186.8
- % left, Blank [2]: 31.4%
- Peak Area, Blank [2]: 154.0
- Peak Area ([3]; Blank sample, 0:00 h): 491.1
- Peak Area ([3]; Blank sample, 0:15 h): 368.9
- Peak Area ([3]; Blank sample, 0:30 h): 361.9
- Peak Area ([3]; Blank sample, 0:45 h): 321.0
- Peak Area ([3]; Blank sample, 1:00 h): 312.0
- Peak Area ([3]; Blank sample, 1:30 h): 293.4
- Peak Area ([3]; Blank sample, 1:45 h): 283.8
- Peak Area ([3]; Blank sample, 2:00 h): 256.7
- Peak Area ([3]; Blank sample, 2:15 h): 250.3
- Peak Area ([3]; Blank sample, 2:30 h): 243.9
- Peak Area ([3]; Blank sample, 2:45 h): 226.8
- Peak Area ([3]; Blank sample, 3:00 h): 213.7
- Peak Area ([3]; Blank sample, 3:15 h): 204.9
- Peak Area ([3]; Blank sample, 3:30 h): 180.1
- Peak Area ([3]; Blank sample, 3:45 h): 181.6
- Peak Area ([3]; Blank sample, 4:00 h): 154.0
- %-residual anthocyanosides (% left) ([3]; Blank): 31%
- Peak Area [3, 5]: 480.6
- Peak Area [3, 6]: 426.1
- Peak Area [3, 7]: 418.6
- Peak Area [3, 8]: 423.8
- Peak Area [3, 9]: 415.3
- Peak Area [3, 10]: 376.4
- Peak Area [3, 11]: 387.6
- Peak Area [3, 12]: 356.5
- Peak Area [3, 13]: 337.5
- Peak Area [3, 14]: 349.5
- Peak Area [3, 15]: 325.6
- Peak Area [3, 16]: 312.6
- Peak Area [3, 17]: 315.7
- Peak Area [3, 18]: 300.3
- %-residual anthocyanosides (% left) ([3]; GSH-protected): 66%
- Peak Area, Fresh solution [4]: 987.9
- % left, L-cysteine 20 mg [4]: 80.7%
- Peak Area, L-cysteine 20 mg [4]: 797.5
- % left, Blank [4]: 41.5%
- Peak Area, Blank [4]: 410.3

SMILES: OC[C@H]1O[C@@H](Oc2cc3c(O)cc(O)cc3[o+]c2-c2cc(O)c(O)c(O)c2)[C@H](O)[C@@H](O)[C@@H]1O [Dp-3O-Glc, Delphinidin 3-o-glucoside]
- % left, GSH (4 hours) [1]: 48.3%
- Peak Area, GSH (4 hours) [1]: 350.8
- % left, DHLA (4 hours) [1]: 57.1%
- Peak Area, DHLA (4 hours) [1]: 414.8
- Peak Area, Fresh (0 hours) [1]: 726.6
- % left, Blank (4 hours) [1]: 6.4%
- Peak Area, Blank (4 hours) [1]: 46.3
- Peak Area, Fresh solution [2]: 1481
- % left, DHLA 20 mg [2]: 52.0%
- % left, GSH 20 mg [2]: 50.4%
- % left, L-cysteine 20 mg [2]: 36.7%
- Peak Area, DHLA 20 mg [2]: 770.7
- Peak Area, GSH 20 mg [2]: 745.6
- Peak Area, L-cysteine 20 mg [2]: 543.0
- % left, Blank [2]: 9.5%
- Peak Area, Blank [2]: 140.8
- Peak Area ([3]; Blank sample, 0:00 h): 1480.7
- Peak Area ([3]; Blank sample, 0:15 h): 969.6
- Peak Area ([3]; Blank sample, 0:30 h): 907.9
- Peak Area ([3]; Blank sample, 0:45 h): 745.2
- Peak Area ([3]; Blank sample, 1:00 h): 702.1
- Peak Area ([3]; Blank sample, 1:30 h): 605.4
- Peak Area ([3]; Blank sample, 1:45 h): 599.9
- Peak Area ([3]; Blank sample, 2:00 h): 465.1
- Peak Area ([3]; Blank sample, 2:15 h): 449.8
- Peak Area ([3]; Blank sample, 2:30 h): 394.0
- Peak Area ([3]; Blank sample, 2:45 h): 362.7
- Peak Area ([3]; Blank sample, 3:00 h): 304.8
- Peak Area ([3]; Blank sample, 3:15 h): 285.1
- Peak Area ([3]; Blank sample, 3:30 h): 208.8
- Peak Area ([3]; Blank sample, 3:45 h): 214.5
- Peak Area ([3]; Blank sample, 4:00 h): 140.8
- %-residual anthocyanosides (% left) ([3]; Blank): 10%
- Peak Area [3, 5]: 1464.0
- Peak Area [3, 6]: 1280.4
- Peak Area [3, 7]: 1209.3
- Peak Area [3, 8]: 1219.0
- Peak Area [3, 9]: 1178.1
- Peak Area [3, 10]: 1051.8
- Peak Area [3, 11]: 1077.0
- Peak Area [3, 12]: 981.9
- Peak Area [3, 13]: 876.8
- Peak Area [3, 14]: 917.2
- Peak Area [3, 15]: 812.5
- Peak Area [3, 16]: 742.7
- Peak Area [3, 17]: 745.6
- Peak Area [3, 18]: 682.0
- %-residual anthocyanosides (% left) ([3]; GSH-protected): 51%
- Peak Area, Fresh solution [4]: 726.6
- % left, L-cysteine 20 mg [4]: 48.3%
- Peak Area, L-cysteine 20 mg [4]: 350.8
- % left, Blank [4]: 6.4%
- Peak Area, Blank [4]: 46.3

Source: US8623429B2, “Stabilized anthocyanin compositions” (Omnica GmbH, priority 2007, dated 2014)
